The subject of assay [1] is T47D human breast carcinoma cells. Briefly: cells. As to conditions: for PS [100 nM] (% stimulation): agonistic mode, alkaline phosphatase induction (100% = 1 nM Dydrogesterone); for PS [100 nM] (% stimulation) / PI [100 nM] (% inhibition): compound 100 nM; for PI [100 nM] (% inhibition): antagonistic mode, inhibition of alkaline phosphatase induction by 1 nM Dydrogesterone; for pIC50: antagonistic potency against 1 nM Dydrogesterone. It is filed as cell-based. The procedure: The progesterone-dependent modulation of alkaline phosphatase expression was examined using T47D human breast carcinoma cells [Keydar et al., 1979]. The assay was performed as previously described by Di Lorenzo et al. (1991) with the modification of using Dydrogesterone as comparative progestin to determine the antagonistic and agonistic activity.
The cell line was purchased from CLS Cell Lines Service (Hildastrasse 21, D-69214 Eppelheim, Germany). In brief, the cells were plated in 96-well plates at 40,000 cells/well using the following growth medium: RPMI 1640 with: 10% FBS, 1 mM Sodium Pyruvat MEM, 10 mM Hepes, 0.01 mg/ml Bovine insulin, and 25 μg/ml Gentamycin. After 24 h of cultivation, the growth medium was replaced with medium containing 2% fetal bovine serum and the test compounds were added to each well to achieve the appropriate compound concentration: For determination of agonistic activity only the test compounds were added; for measurement of antagonistic activity the test compounds and additionally Dydrogesterone as standard progesterone agonist was added to a final concentration of 1 nM. After 48 h of cultivation, the medium was removed and the cells were washed with 200 μl of Dulbecco's phosphate-buffered saline without calcium and magnesium (PBS(−)). Then the cells were fixed with 3.7% formaldehyde in phosphate-buffered saline for 15 min at 22° C. After washing the cells with PBS, 100 μl of a […] (pNPP) solution (pNPP Liquid Substrate System; Sigma) was added to each well and incubated for 2 h at room temperature protected from light. The reaction was stopped with 100 μl 1N NaOH and the absorbance was measured with a spectrophotometer (Victor, Perkin Elmer) at 405 nm. The results are expressed as alkaline phosphatase induction (as 100% with 1 nM Dydrogesterone) or inhibition (against alkaline phosphatase induction by 1 nM Dydrogesterone) at a certain concentration of test compound.
% stimulation=(effect compound−basal)/(effect dydro 1 nM−basal)*100% inhibition of 1 nM Dydro=100*{1-[(effect compound−basal)/(effect dydro 1 nM−basal)]}
For each compound the % inhibition (PI) and % stimulation (PS), respectively, at a compound concentration of 100 nM was determined. For selected compounds, the corresponding values were measured for several different concentrations, and subsequently were plotted against the concentration of the test compound, and used to calculate the IC50 value (for the antagonistic potency; the IC50 value is the concentration (nM), required to reduce the maximal response by 50%) and EC50 values (for the agonistic potency; the EC50 value is the effective concentration (nM) that produced 50% of the maximum response), respectively.

The target of assay [2] is T1, human progesterone receptor (Homo sapiens, UniProt P06401).
T1 sequence (P06401 679-933 limits assumed): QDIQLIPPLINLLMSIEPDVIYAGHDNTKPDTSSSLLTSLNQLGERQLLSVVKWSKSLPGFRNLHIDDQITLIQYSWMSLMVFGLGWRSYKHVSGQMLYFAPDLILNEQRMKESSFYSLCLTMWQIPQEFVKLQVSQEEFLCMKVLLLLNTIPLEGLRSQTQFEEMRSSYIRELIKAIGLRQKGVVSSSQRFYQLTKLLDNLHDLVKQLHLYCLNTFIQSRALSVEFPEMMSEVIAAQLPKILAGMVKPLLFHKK
The assay is described as follows: Progesterone receptor binding assay, human PR (CEREP). Particulars: 3H-R5020 as ligand, MCF7 cells as source of PR; read-out: Human PR binding (pKi) (converted). The procedure:
The progesterone receptor (PR) binding assays were performed at CEREP (Celle I'Evescault, France).
The binding to the human progesterone receptor (Assay Cat No: Progesterone receptor-814h) was be measured using 3H-R5020 as ligand and MCF7 cells as the source of progesterone receptor. The assay is performed as described by Eckert & Katzenellenbogen [1982]. The binding to the bovine progesterone receptor (Assay Cat No: Progesterone receptor-814) was measured using 3H-R5020 as ligand and uterus tissue as the source of progesterone receptor. The assay was performed as described by Hurd & Moudgil [1988].
The results of the receptor binding assay are presented as the individual pKi values, which were determined by measuring the binding activity to the human or bovine PR, as indicated, for a concentration range of each compound.

Structures are written as SMILES. Some results are limits rather than exact numbers.

Turning to `CC(=O)[C@H]1CC[C@H]2[C@@H]3C=CC4=CC(=O)CC[C@@]4(C)[C@@H]3[C@@H](OC(=O)Nc3ccc4c(c3)OCO4)C[C@]12C` [Compound No. 13, Benzo[1,3]dioxol-5-yl-carbamic acid dydrogesterone-11β-yl ester], the activation at 0.1 µM in assay [1] (Homo sapiens, T47D, 48 h, read-out: PS [100 nM] (% stimulation)) came to 5%. Besides, the inhibition (usually the percentage by which the read-out fell short of the control) at 0.1 µM in assay [1] (Homo sapiens, T47D, read-out: PI [100 nM] (% inhibition)) turned out to be 73%. In addition, the EC50 in assay [1] (Homo sapiens, T47D, read-out: pEC50 (converted)) was 398 nM. Further, the IC50 in assay [1] (Homo sapiens, T47D, read-out: pIC50 (converted)) is 31.6 nM. For the same compound, the Ki in assay [2] was at least 631 nM.
Regarding `CC(=O)[C@H]1CC[C@H]2[C@@H]3C=CC4=CC(=O)CC[C@@]4(C)[C@@H]3[C@@H](OC(=O)Nc3cccc(/C=N/O)c3)C[C@]12C` [Compound No. 32, [3-(Hydroxyimino-methyl)-phenyl]-carbamic acid dydrogesterone-11-yl ester], the Ki in assay [2] is 316 nM.
Same read-out and setting: the same measure for `COc1ccccc1N1CCN(C(=O)O[C@H]2C[C@]3(C)[C@@H](C(C)=O)CC[C@H]3[C@@H]3C=CC4=CC(=O)CC[C@@]4(C)[C@@H]32)CC1` [compound 43, 4-(2-Methoxy-phenyl)-piperazine-1-carboxylic aciddydrogesterone-11-yl ester]: at least 631 nM; for `CC(=O)[C@H]1CC[C@H]2[C@@H]3C=CC4=CC(=O)CC[C@@]4(C)[C@@H]3[C@@H](OC(=O)Nc3cccc(OC(F)(F)F)c3)C[C@]12C` [compound 63, (3-Trifluoromethoxy-phenyl)-carbamic acid dydrogesterone-11-yl ester]: at least 631 nM; for `CC(=O)[C@H]1CC[C@H]2[C@@H]3C=CC4=CC(=O)CC[C@@]4(C)[C@@H]3[C@@H](OC(=O)NCc3ccc(S(C)(=O)=O)cc3)C[C@]12C` [compound 67, (4-Methanesulfonyl-benzyl)-carbamic acid dydrogesterone-11-yl ester]: at least 631 nM.
Same read-out and setting: the same measure for `CC(=O)[C@H]1CC[C@H]2[C@@H]3C=CC4=CC(=O)CC[C@@]4(C)[C@@H]3[C@@H](OC(=O)Nc3cccc(C#N)c3)C[C@]12C` [compound 71, (3-Cyano-phenyl)-carbamic aciddydrogesterone-11-yl ester]: at least 631 nM.
For `CC(=O)[C@H]1CC[C@H]2[C@@H]3C=CC4=CC(=O)CC[C@@]4(C)[C@@H]3C(OC(=O)Nc3cccc(OC(F)(F)F)c3)C[C@]12C` (stereo partly drawn) [compound 74, (3-Trifluoromethoxy-phenyl)-carbamic acid dydrogesterone-11-yl ester], in assay [1] (T47D cells), the “PS [100 nM] (% stimulation)” value amounted to 89.0% and the “PI [100 nM] (% inhibition)” value is listed as −23.0%. The negative-log EC50 (pEC50) (as a rule, −log10 of the EC50, conventionally taken in molar units) in assay [1] (agonistic potency, T47D cells) came to 6.3.
Turning to `CC(=O)[C@H]1CC[C@H]2[C@@H]3C=CC4=CC(=O)CC[C@@]4(C)[C@@H]3C(OC(=O)Nc3ccc(OC(F)F)cc3)C[C@]12C` (stereo partly drawn) [compound 75, (4-Difluoromethoxy-phenyl)-carbamic acid dydrogesterone-11-yl ester], in assay [1] (T47D cells), the “PS [100 nM] (% stimulation)” value was found to be 0.0%; the “PI [100 nM] (% inhibition)” value is given as 59.0%; the negative logarithm of the IC50 (pIC50) – broadly, −log10 of the IC50, conventionally taken in molar units – amounted to 6.9.
For `CC(=O)[C@H]1CC[C@H]2[C@@H]3C=CC4=CC(=O)CC[C@@]4(C)[C@@H]3C(OC(=O)Nc3ccc(C)c(Br)c3)C[C@]12C` (stereo partly drawn) [compound 76, (3-Bromo-4-methyl-phenyl)-carbamic acid dydrogesterone-11-yl ester] the same measures were 4.0%, 67.0% and 7.3.
Take `CC(=O)[C@H]1CC[C@H]2[C@@H]3C=CC4=CC(=O)CC[C@@]4(C)[C@@H]3[C@@H](OC(=O)Nc3ccc4c(=O)cc(C)oc4c3)C[C@]12C` [compound 77, (2-Methyl-4-oxo-4H-chromen-7-yl)-carbamic aciddydrogesterone-11-yl ester]: the Ki in assay [2] is at least 631 nM.
The same measure, in the same setting: the same measure for `CC(=O)[C@H]1CC[C@H]2[C@@H]3C=CC4=CC(=O)CC[C@@]4(C)[C@@H]3[C@@H](OC(=O)NCc3cccc(F)c3)C[C@]12C` [compound 78, (3-Fluoro-benzyl)-carbamic aciddydrogesterone-11-yl ester]: 398 nM; for `CC(=O)[C@H]1CC[C@H]2[C@@H]3C=CC4=CC(=O)CC[C@@]4(C)[C@@H]3[C@@H](OC(=O)Nc3ccc(F)c(C#N)c3)C[C@]12C` [compound 85, (3-Cyano-4-fluoro-phenyl)-carbamic acid dydrogesterone-11-yl ester]: 501 nM.
Consider `CC(=O)[C@H]1CC[C@H]2[C@@H]3C=CC4=CC(=O)CC[C@@]4(C)[C@@H]3C(OC(=O)Nc3ccc4cc[nH]c4c3)C[C@]12C` (stereo partly drawn) [compound 88, (1H-Indol-6-yl)-carbamic aciddydrogesterone-11-yl ester], for which, in assay [1] (T47D cells), the “PS [100 nM] (% stimulation)” value is 0.0% and the “PI [100 nM] (% inhibition)” value is 48.0%.
Turning to `CSc1ccc(NC(=O)OC2C[C@]3(C)[C@@H](C(C)=O)CC[C@H]3[C@@H]3C=CC4=CC(=O)CC[C@@]4(C)[C@H]23)cc1` (stereo partly drawn) [compound 94, (4-Methylsulfanyl-phenyl)-carbamic acid dydrogesterone-11-yl ester], in assay [1] (T47D cells), the “PS [100 nM] (% stimulation)” value is 1.0%, the “PI [100 nM] (% inhibition)” value is 61.0% and the negative-log IC50 (pIC50) turned out to be 7.0.
As to `CC(=O)Nc1cccc(NC(=O)OC2C[C@]3(C)[C@@H](C(C)=O)CC[C@H]3[C@@H]3C=CC4=CC(=O)CC[C@@]4(C)[C@H]23)c1` (stereo partly drawn) [compound 95, (3-Acetylamino-phenyl)-carbamicacid dydrogesterone-11-yl ester], in assay [1] (T47D cells), the “PS [100 nM] (% stimulation)” value is 1.0%, the “PI [100 nM] (% inhibition)” value is on record as 50.0% and the negative-log IC50 (pIC50) turned out to be 6.8.
Taken in the same sequence, the figures for `CC(=O)[C@H]1CC[C@H]2[C@@H]3C=CC4=CC(=O)CC[C@@]4(C)[C@@H]3C(OC(=O)Nc3ccc4c(c3)S(=O)(=O)C=C4)C[C@]12C` (stereo partly drawn) [compound 98, (1,1-Dioxo-1H-1lambda*6*-benzo[b]thiophen-6-yl)-carbamicacid dydrogesterone-11-yl ester] were 1.0%, 61.0% and 7.0.
Taken in the same sequence, the figures for `CC(=O)[C@H]1CC[C@H]2[C@@H]3C=CC4=CC(=O)CC[C@@]4(C)[C@@H]3C(OC(=O)Nc3cccc(N4CCCC4=O)c3)C[C@]12C` (stereo partly drawn) [compound 100, [3-(2-Oxo-pyrrolidin-1-yl)-phenyl]-carbamic aciddydrogesterone-11-yl ester] were 1.0%, 45.0% and 6.6.
On to `CC(=O)[C@H]1CC[C@H]2[C@@H]3C=CC4=CC(=O)CC[C@@]4(C)[C@@H]3C(OC(=O)Nc3cccc(-n4cccc4)c3)C[C@]12C` (stereo partly drawn) [compound 103, (3-Pyrrol-1-yl-phenyl)-carbamicacid dydrogesterone-11-yl ester], for which, in assay [1] (T47D cells), the “PS [100 nM] (% stimulation)” value was 21.0%, the “PI [100 nM] (% inhibition)” value was 52.0% and the pIC50 was found to be 7.2.
Consider `COc1cc(NC(=O)OC2C[C@]3(C)[C@@H](C(C)=O)CC[C@H]3[C@@H]3C=CC4=CC(=O)CC[C@@]4(C)[C@H]23)cc(-n2cnnn2)c1` (stereo partly drawn) [compound 104, (3-Methoxy-5-tetrazol-1-yl-phenyl)-carbamic aciddydrogesterone-11-yl ester], for which, in assay [1] (T47D cells), the “PS [100 nM] (% stimulation)” value amounted to 1.0%, the “PI [100 nM] (% inhibition)” value is on record as 45.0% and the pIC50 turned out to be 6.9.
